According to US7335501B1, “Phytases and methods for producing these phytases” (Adisseo France S.A.S., priority 2001, dated 2008):

Tested on: Penicillium sp. CBS 109899 phytase (wild type, SEQ ID NO: 3), in crude fungal extract
Assay: Michaelis-Menten constants of the phytase contained in the crude fungal extract (phosphate release from sodium phytate, method of Shimizu)
Assay type: biochemical
Conditions: substrate sodium phytate, 250 mM acetate buffer with 1 mM CaCl2, pH 5.5, 37° C.
Method: The measurement of phytase activity is based on the method of Shimizu (1992, Biosci. Biotech. Biochem. 56(8), 1266-1269). The principle of this method consists in measuring the amount of inorganic phosphate released during the enzymatic reaction of the phytase with its substrate (solution of sodium phytate prepared at 10 g/l in a 250 mM acetate buffer containing 1 mM CaCl2, pH 5.5). The amount of inorganic phosphate released is measured by reaction of this phosphate with a chromogenic reagent (1 volume of iron sulfate at 10.8% mixed extemporaneously with 4 volumes of ammonium molybdate at 0.012M H2SO4). This reaction leads, in highly acidic medium, to the formation of a colored phosphomolybdate complex (in the presence of Fe^2+), and the amount of complex formed is quantified by measuring the absorbance at 700 nm of the colored solution generated, on a spectrophotometer.
Three reactions are carried out in parallel in order to produce enzymatic kinetics at 10, 20 and 30 minutes at 37° C. […] The sample interference is determined by adding the 20% trichloroacetic acid and then the phytic acid to the crude extract, which may or may not be diluted. […] The intensity of the blue coloration is measured by spectrophotometry at 700 nm. […] The enzymatic activity is determined using the rate of appearance of the phosphate in the course of the enzymatic kinetics. […]

O=P(O)(O)O[C@H]1[C@H](OP(=O)(O)O)[C@@H](OP(=O)(O)O)[C@H](OP(=O)(O)O)[C@@H](OP(=O)(O)O)[C@H]1OP(=O)(O)O [sodium phytate]
Vmapp (maximum reaction rate): 1.425 μmol of phosphate released per minute and per mg of sample
Km (substrate concentrations and incubation times modified, read-out: Kmapp): 550 µM
